Test results taken from patent publication US12702692B2, “Therapeutic use of calcium-activated chloride channel peptide activator” (CENTRE NATIONAL DE LA RECHERCHE SCIENTIFIQUE, priority 2020, dated 2026).

Test: Tear fluid secretion in dry eye model (surgical removal of exorbital lachrymal gland)
Format: in vivo, Sprague-Dawley rats
Conditions: N13ter 10 mM topical
Procedure: Sprague-Dawley rats (males, around 200 g) were purchased from Charles River and adapted one week before processing the experiment. Two-three rats per cage were housed in a controlled environment of 12 hours intervals of light/dark cycles and free access to food and water. Animal experiments were approved by the Animal Care and Use Committee of the University of Barcelona (CEEA) and the Departament de Territori i Sostenibilitat of Generalitat de Catalunya, Catalonia, Spain (319/19; 10935) and followed the ethical guidelines of the International Association for the Study of Pain.
N13ter (also named Nter 13 peptide or N13) ([…] (SEQ ID NO: 2)) and scramble ([…] (SEQ ID NO: 7)) peptides were purchased from GenScript Biotech (Leiden, Netherlands) and provided by CNRS. Both peptides were dissolved in Phosphate Buffered Saline (PBS) at 10 mM and used for topical ocular application (5 ul per eye).
Tear fluid secretion (tearing rate) was measured using phenol red threads (Zone-Quick, Menicon, Nagoya, Japan) placed on the lower eyelid for 30 s without topical anesthesia (Trost, 2007; Acosta 2013). Tearing rate was determined with an accuracy of ±0.5 mm by measurement of the length of the red portion of the thread.
To establish a dry eye model, a similar procedure to those previously described was used (Callejo 2015, Pain; 156(3):483-495, Kovacs, 2016, Pain.; 157(2):399-417). Rats were intraperitoneally anaesthetized with ketamine/xylacine (80:10 mg/kg). […] Tear fluid secretion was measured in both eyes before (basal) and once a week at 1, 2, 3 and 4 weeks after surgery using phenol red threads (Zone-Quick, Menicon, Nagoya, Japan) placed on the lower eyelid for 30 s without topical anesthesia (Trost, 2007; Acosta 2013). Tearing rate was determined with an accuracy of ±0.5 mm by measurement of the length of the red portion of the thread. After tearing rate measurement on week 4, animals were divided in two groups and a solution containing one of the peptides (N13ter or PBS) was topically applied to the ocular surface (5 μl) and tearing rate was measured at 1, 3, 6, 12 and 24 h. […]

LARRSPRSSDGKL (SEQ ID NO: 2) (amino acid residues between positions 30 to 42 of the human KCNE1 protein sequence) [N13ter]
effect on tearing rate vs vehicle: statistically significant compared to vehicle group
time to return to basal values: ≤ 24 h
tearing rate at 3 h (peak) (n=14 eyes, 5 weeks basal 4.04±0.49 mm): 6.54±0.78 mm
